Measurements as given in publication PMC9227830, “Neuroprotective Effect of Yucca schidigera Roezl ex Ortgies Bark Phenolic Fractions, Yuccaol B and Gloriosaol A on Scopolamine-Induced Memory Deficits in Zebrafish” (Molecules, 2022).

Biological target: T1, Glycine max (soybean) 15-lipoxygenase (15-LOX) (Glycine max, UniProt P08170)
T1 construct: gene LOX1.1; commercial native soybean enzyme (Sigma-Aldrich)
T1 sequence (P08170 1-839): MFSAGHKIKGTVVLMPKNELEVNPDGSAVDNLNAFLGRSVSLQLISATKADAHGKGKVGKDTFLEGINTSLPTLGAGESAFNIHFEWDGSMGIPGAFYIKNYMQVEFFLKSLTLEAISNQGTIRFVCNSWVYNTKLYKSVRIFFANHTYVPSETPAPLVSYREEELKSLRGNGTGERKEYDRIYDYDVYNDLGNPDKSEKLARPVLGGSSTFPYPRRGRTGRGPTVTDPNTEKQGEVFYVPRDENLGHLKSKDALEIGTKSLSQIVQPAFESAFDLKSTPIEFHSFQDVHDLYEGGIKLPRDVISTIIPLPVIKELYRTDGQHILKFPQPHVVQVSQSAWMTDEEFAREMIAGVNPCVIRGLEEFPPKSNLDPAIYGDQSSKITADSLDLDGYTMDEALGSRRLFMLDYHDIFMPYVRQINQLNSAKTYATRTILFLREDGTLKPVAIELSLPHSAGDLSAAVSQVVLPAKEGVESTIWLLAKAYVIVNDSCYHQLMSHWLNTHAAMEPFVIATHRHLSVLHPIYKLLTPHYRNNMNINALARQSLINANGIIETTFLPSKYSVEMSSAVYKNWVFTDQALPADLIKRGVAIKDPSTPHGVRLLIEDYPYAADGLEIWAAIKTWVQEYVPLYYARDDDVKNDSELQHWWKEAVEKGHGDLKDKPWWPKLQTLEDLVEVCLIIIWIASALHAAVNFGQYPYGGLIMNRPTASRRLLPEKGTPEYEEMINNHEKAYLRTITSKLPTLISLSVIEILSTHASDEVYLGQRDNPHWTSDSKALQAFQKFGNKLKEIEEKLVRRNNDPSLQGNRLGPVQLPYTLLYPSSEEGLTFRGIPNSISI
Test: UV spectrophotometry at […] nm, linoleic acid oxidation (modified Malterud)
Assay type: biochemical
Conditions: read-out: EC50 (the source's name) (converted)

Structure (SMILES) | IC50 [µM]
O=C1Oc2cc(O)cc(/C=C/c3ccc(O)cc3)c2[C@@]12c1c(O)cc(O)cc1O[C@H]2c1ccc(O)cc1 [YuB, yuccaol B] | 19.5
COc1c(O)cc(/C=C/c2cc(O)cc3c2[C@]2(C(=O)O3)c3c(O)cc(O)cc3O[C@H]2c2ccc(O)cc2)c2c1OC(=O)[C@]21c2c(O)cc(O)cc2O[C@H]1c1ccc(O)cc1 [GloA, gloriosaol A] | 15.2
O=C1O[C@H]([C@@H](O)CO)C(O)=C1O [vitamin C, reference compound] | 122
